Source: US20240360165A1, “INHIBITORS OF CYCLIN DEPENDENT KINASE 7 (CDK7)” (Syros Pharmaceuticals, Inc., priority 2016, published 2024)
Where two headings read alike, the source gives them in different places.

Tests used:
[1] = molecular target: CDK7/Cyclin H/MAT1 complex (Homo sapiens, UniProt P50613); test: CDK7 inhibition assay (Caliper/LabChip EZ Reader kinase assay); assay type: biochemical; settings: Table 1, CDK7/Cyclin H/MAT1 6 nM, ATP 2 mM, 35 min at 27° C.
In short: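 A Perkin Elmer Caliper/LabChip EZ Reader (Waltham, MA) platform served as the basis for this CDK7 kinase inhibition assay. The work was carried out by Biortus Biosciences, located in Jiangyin, Jiangsu Province, P.R. of China. Each CDK studied had its own kinase assay, and compounds were evaluated for their ability to block CDK7 activity.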

[2] = molecular target: CDK9/Cyclin T1 complex (Homo sapiens, UniProt P50750); test: CDK9 inhibition assay (Caliper/LabChip EZ Reader kinase assay); assay type: biochemical; settings: Table 1, CDK9/Cyclin T1 8 nM, ATP 2 mM, 15 min at 27° C.
Sequence of CDK9/Cyclin T1 complex (P50750 whole entry, species assumed): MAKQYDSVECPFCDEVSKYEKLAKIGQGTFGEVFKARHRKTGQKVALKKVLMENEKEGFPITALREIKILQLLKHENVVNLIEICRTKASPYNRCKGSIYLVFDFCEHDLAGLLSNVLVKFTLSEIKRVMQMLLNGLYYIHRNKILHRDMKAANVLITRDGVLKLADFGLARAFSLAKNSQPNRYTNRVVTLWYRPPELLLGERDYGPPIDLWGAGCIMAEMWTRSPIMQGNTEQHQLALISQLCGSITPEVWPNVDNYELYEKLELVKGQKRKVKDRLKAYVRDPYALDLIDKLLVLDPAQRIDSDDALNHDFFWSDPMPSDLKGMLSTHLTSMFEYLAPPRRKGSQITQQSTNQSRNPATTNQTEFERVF
Sequence of CDK9/Cyclin T1 complex (O60563 whole entry partner, species assumed): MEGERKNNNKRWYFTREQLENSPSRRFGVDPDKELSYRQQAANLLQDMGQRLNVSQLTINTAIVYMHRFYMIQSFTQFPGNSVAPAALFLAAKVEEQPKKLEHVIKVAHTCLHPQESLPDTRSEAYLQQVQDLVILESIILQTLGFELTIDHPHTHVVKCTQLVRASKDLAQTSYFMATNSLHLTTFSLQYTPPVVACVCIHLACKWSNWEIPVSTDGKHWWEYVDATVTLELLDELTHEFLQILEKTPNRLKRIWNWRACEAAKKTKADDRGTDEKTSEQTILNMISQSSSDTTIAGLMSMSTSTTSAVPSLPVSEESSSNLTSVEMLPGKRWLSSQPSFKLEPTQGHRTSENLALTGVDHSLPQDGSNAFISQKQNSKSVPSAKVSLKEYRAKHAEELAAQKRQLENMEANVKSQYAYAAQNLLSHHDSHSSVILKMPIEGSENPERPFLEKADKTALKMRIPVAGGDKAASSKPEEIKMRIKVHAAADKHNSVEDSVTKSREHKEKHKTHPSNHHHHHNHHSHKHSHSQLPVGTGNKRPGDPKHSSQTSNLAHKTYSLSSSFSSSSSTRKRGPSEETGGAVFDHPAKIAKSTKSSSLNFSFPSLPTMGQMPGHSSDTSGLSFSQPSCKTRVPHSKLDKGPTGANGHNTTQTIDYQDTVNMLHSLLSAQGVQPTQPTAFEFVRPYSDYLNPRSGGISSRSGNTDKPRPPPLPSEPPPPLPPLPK
In short: (§1)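 Activity read as fluorescent peptide conversion on a LabChip EZ Reader. For CDK2/Cyclin E1 (0.5 nM), substrate was 5-FAM-CDK7tide (2 μM) with 2 mM MgCl2; for CDK9/Cyclin T1 (8 nM), 5-FAM-CDK9tide (2 μM) with 10 mM MgCl2.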

[3] = molecular target: T1, CDK12 (aa686-1082)/Cyclin K complex (Homo sapiens, UniProt Q9NYV4); test: CDK12 inhibition assay (Caliper/LabChip EZ Reader kinase assay); assay type: biochemical; settings: Table 1, CDK12 (aa686-1082)/Cyclin K 50 nM, ATP 2 mM, 3 hr at 27° C.
T1 construct: CDK12 (aa686-1082)/Cyclin K complex
T1 sequence (Q9NYV4 686-1082, species assumed): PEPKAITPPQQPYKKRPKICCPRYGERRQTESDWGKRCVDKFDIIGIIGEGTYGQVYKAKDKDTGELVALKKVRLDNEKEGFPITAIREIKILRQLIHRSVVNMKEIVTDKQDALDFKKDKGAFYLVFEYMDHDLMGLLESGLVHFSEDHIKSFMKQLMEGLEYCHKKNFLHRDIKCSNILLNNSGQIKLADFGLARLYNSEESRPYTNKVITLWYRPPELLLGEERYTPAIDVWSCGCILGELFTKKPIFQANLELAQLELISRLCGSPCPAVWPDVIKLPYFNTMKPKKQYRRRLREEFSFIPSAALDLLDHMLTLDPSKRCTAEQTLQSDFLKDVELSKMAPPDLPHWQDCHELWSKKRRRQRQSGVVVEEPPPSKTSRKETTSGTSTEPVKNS
T1 sequence (O75909 whole entry partner, species assumed, the tested form may be a part): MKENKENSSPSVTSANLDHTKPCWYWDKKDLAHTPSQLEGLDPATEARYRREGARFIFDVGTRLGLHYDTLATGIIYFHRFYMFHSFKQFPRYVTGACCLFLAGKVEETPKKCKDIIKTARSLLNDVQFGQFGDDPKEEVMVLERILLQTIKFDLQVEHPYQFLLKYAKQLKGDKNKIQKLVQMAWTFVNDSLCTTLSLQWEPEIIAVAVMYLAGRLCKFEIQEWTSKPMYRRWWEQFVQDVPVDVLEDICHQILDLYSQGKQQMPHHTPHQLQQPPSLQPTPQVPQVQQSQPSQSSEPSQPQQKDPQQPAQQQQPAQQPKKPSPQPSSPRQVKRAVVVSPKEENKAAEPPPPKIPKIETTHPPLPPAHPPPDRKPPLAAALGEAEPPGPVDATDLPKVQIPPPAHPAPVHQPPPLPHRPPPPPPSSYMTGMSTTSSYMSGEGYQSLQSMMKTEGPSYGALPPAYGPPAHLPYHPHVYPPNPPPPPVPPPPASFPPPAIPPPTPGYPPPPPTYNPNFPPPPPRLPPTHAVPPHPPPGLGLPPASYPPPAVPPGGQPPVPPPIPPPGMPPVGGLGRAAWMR

[4] = molecular target: CDK2/Cyclin E1 complex (Homo sapiens, UniProt P24941); test: CDK2 inhibition assay (Caliper/LabChip EZ Reader kinase assay); assay type: biochemical; settings: Table 1, CDK2/Cyclin E1 0.5 nM, ATP 2 mM, 35 min at 27° C.
In short: as §1

[5] = tested on: A673 cells; test: Inhibition of proliferation of A673 cells (CyQUANT, 72 hour); assay type: cell-based, human; settings: A673 cells, 72 hour, CyQUANT, read-out: Inhibition of Proliferation of A673 Cells (calculated IC50)
In short: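 Proliferation read-out by CyQUANT after a 72 h exposure, compounds spanning 4 μM–[…] in half-log steps. A673 cells cultured at 37° C under 5% CO2 in DMEM supplemented with 10% FBS plus 1 mM sodium pyruvate.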

[6] = tested on: HCC70 cells; test: Inhibition of proliferation of HCC70 cells (CyQUANT Direct Cell Proliferation Assay, 72 hour); assay type: cell-based, human
In short: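 Human triple-negative breast cancer HCC70 cells cultured at 37° C, 5% CO2, with compound for 72 hour. Anti-proliferative effect read by CyQUANT Direct Cell Proliferation Assay. Dinaciclib, a CDK inhibitor analog and triptolide served as positive controls.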

[7] = Homo sapiens, HCC70, 72 h, read-out: Inhibition of Proliferation of HCC70 Cells (calculated IC50)

Sequence of CDK7/Cyclin H/MAT1 complex (P50613 whole entry, species assumed): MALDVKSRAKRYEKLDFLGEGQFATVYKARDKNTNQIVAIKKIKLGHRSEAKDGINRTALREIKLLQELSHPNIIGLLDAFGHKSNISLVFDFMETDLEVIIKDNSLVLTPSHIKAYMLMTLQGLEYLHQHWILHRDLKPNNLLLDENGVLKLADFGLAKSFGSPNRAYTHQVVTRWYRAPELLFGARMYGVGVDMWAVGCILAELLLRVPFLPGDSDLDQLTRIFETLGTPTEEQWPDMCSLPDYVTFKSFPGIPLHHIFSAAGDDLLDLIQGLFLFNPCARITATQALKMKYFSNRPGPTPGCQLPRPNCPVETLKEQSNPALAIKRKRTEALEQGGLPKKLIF
Sequence of CDK7/Cyclin H/MAT1 complex (P51946 whole entry partner, species assumed): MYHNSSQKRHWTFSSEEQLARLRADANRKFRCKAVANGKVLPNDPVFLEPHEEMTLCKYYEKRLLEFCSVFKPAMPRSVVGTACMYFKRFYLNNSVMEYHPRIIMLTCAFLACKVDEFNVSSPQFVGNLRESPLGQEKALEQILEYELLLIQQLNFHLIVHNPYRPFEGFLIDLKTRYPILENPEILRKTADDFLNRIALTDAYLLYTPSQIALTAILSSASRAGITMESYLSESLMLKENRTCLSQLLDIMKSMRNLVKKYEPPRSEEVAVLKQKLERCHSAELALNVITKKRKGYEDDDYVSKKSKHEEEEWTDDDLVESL
Sequence of CDK7/Cyclin H/MAT1 complex (P51948 whole entry partner, species assumed): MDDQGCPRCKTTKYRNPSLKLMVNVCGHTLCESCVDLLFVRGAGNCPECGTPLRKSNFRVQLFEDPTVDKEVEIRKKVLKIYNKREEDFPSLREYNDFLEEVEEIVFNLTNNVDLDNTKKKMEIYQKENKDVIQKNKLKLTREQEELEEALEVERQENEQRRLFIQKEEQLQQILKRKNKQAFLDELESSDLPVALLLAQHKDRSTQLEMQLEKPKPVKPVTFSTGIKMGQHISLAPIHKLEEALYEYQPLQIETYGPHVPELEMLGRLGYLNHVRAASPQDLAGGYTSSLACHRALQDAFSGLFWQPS

O=C(c1cccc(-c2ccc3c(-c4nc(N[C@H]5CCCNC5)ncc4C(F)(F)F)c[nH]c3c2)c1)N1CCCC1 [Compound 340, [3-[3-[2-[[(3S)-3-piperidyl]amino]-5-(trifluoromethyl)pyrimidin-4-yl]-1H-indol-6-yl]phenyl]-pyrrolidin-1-yl-methanone]
IC50 [1]: 20 to 200 nM
IC50 [2]: 200 to 5000 nM
IC50 ([2]; listed as 140): > 5000 nM
IC50 [3]: 200 to 5000 nM
IC50 ([3]; listed as 140): > 5000 nM
IC50 [4]: 200 to 5000 nM
IC50 ([4]; listed as 140): > 5000 nM
IC50 [5]: 200 to 5000 nM
IC50 [6, 7]: 1000 to 5000 nM

FC(F)(F)c1cnc(N[C@H]2CCCNC2)nc1-c1c[nH]c2c(-c3ccnnc3)cccc12 [Compound 180]
IC50 [1]: < 20 nM
IC50 [2]: 200 to 5000 nM
IC50 [3]: 20 to 200 nM
IC50 [4]: 20 to 200 nM
IC50 ([5]; Homo sapiens, A673, 72 h): < 20 nM
IC50 [6, 7]: < 100 nM

CS(=O)(=O)c1ccc2c(-c3nc(N[C@H]4CCCNC4)ncc3C(F)(F)F)c[nH]c2c1 [Compound 199, 4-(6-methylsulfonyl-1H-indol-3-yl)-N-[(3S)-3-piperidyl]-5-(trifluoromethyl) pyrimidin-2-amine]
IC50 [1]: < 20 nM
IC50 [2]: 200 to 5000 nM
IC50 [3]: 200 to 5000 nM
IC50 [4]: 200 to 5000 nM
IC50 ([5]; Homo sapiens, A673, 72 h): < 20 nM
IC50 [6, 7]: 100 to 1000 nM

FC(F)(F)c1cnc(N[C@H]2CCCNC2)nc1-c1c[nH]c2cc(-c3cccc(Oc4ccccc4)c3)ccc12 [Compound 341, 4-[6-(3-phenoxyphenyl)-1H-indol-3-yl]-N-[(3S)-3-piperidyl]-5 (trifluoromethyl) pyrimidin-2-amine]
IC50 [1]: 200 to 5000 nM
IC50 ([1]; listed as 141): < 20 nM
IC50 [2]: > 5000 nM
IC50 ([2]; listed as 141): 200 to 5000 nM
IC50 [3]: > 5000 nM
IC50 ([3]; listed as 141): 200 to 5000 nM
IC50 [4]: > 5000 nM
IC50 ([4]; listed as 141): 200 to 5000 nM
IC50 [5]: < 20 nM
IC50 [6, 7]: 1000 to 5000 nM
IC50 ([6]; listed as 141, read-out: Inhibition of Proliferation of HCC70 Cells (calculated IC50)): < 100 nM
